Measurements as given in the NIST ThermoML archive (doi:10.1016/j.jct.2017.08.004).

Experiments:
[1] = Molar enthalpy of transition or fusion; details: Crystal; DSC
[2] = for molar entropy: 101.33 kPa

OC[C@@H](O)C(O)[C@H](O)CO [D-arabitol]
Details | Molar enthalpy of transition or fusion [kcal/mol]
[1] | 9.46

[2]
Details | molar entropy [J/K/mol]
1 K, Crystal, relaxation calorimetry | 0.0005801
2 K, Crystal, relaxation calorimetry | 0.002268
3 K, Crystal, relaxation calorimetry | 0.006257
4 K, Crystal, relaxation calorimetry | 0.01391
5 K, Crystal, relaxation calorimetry | 0.02686
6 K, Crystal, relaxation calorimetry | 0.04705
7 K, Crystal, relaxation calorimetry | 0.07698
8 K, Crystal, relaxation calorimetry | 0.1198
9 K, Crystal, relaxation calorimetry | 0.179
10 K, Crystal, relaxation calorimetry | 0.2576
15 K, Crystal, relaxation calorimetry | 1.012
20 K, Crystal, relaxation calorimetry | 2.431
25 K, Crystal, relaxation calorimetry | 4.457
30 K, Crystal, relaxation calorimetry | 6.97
35 K, Crystal, relaxation calorimetry | 9.854
40 K, Crystal, relaxation calorimetry | 13.02
45 K, Crystal, relaxation calorimetry | 16.41
50 K, Crystal, relaxation calorimetry | 19.95
55 K, Crystal, relaxation calorimetry | 23.61
60 K, Crystal, relaxation calorimetry | 27.36
65 K, Crystal, relaxation calorimetry | 31.16
70 K, Crystal, relaxation calorimetry | 35.01
75 K, Crystal, relaxation calorimetry | 38.9
80 K, Crystal, relaxation calorimetry | 42.79
85 K, Crystal, relaxation calorimetry | 46.7
90 K, Crystal, relaxation calorimetry | 50.61
95 K, Crystal, relaxation calorimetry | 54.52
100 K, Crystal, relaxation calorimetry | 58.42
110 K, Crystal, relaxation calorimetry | 66.18
120 K, Crystal, relaxation calorimetry | 73.87
130 K, Crystal, relaxation calorimetry | 81.48
140 K, Crystal, relaxation calorimetry | 89.01
150 K, Crystal, relaxation calorimetry | 96.45
160 K, Crystal, relaxation calorimetry | 103.81
170 K, Crystal, relaxation calorimetry | 111.08
180 K, Crystal, relaxation calorimetry | 118.28
190 K, Crystal, relaxation calorimetry | 125.41
200 K, Crystal, relaxation calorimetry | 132.48
210 K, Crystal, relaxation calorimetry | 139.49
220 K, Crystal, relaxation calorimetry | 146.44
230 K, Crystal, relaxation calorimetry | 153.36
240 K, Crystal, relaxation calorimetry | 160.23
250 K, Crystal, relaxation calorimetry | 167.08
260 K, Crystal, relaxation calorimetry | 173.89
270 K, Crystal, relaxation calorimetry | 180.69
273.15 K, Crystal, relaxation calorimetry | 182.82
280 K, Crystal, relaxation calorimetry | 187.46
290 K, Crystal, relaxation calorimetry | 194.23
298.15 K, Crystal, relaxation calorimetry | 199.73
300 K, Crystal, relaxation calorimetry | 200.98
305 K, Crystal, Small sample (50 mg) DSC | 204.36
310 K, Crystal, Small sample (50 mg) DSC | 207.75
315 K, Crystal, Small sample (50 mg) DSC | 211.16
320 K, Crystal, Small sample (50 mg) DSC | 214.58
325 K, Crystal, Small sample (50 mg) DSC | 218.03
330 K, Crystal, Small sample (50 mg) DSC | 221.5
335 K, Crystal, Small sample (50 mg) DSC | 224.99
340 K, Crystal, Small sample (50 mg) DSC | 228.51
345 K, Crystal, Small sample (50 mg) DSC | 232.07
350 K, Crystal, Small sample (50 mg) DSC | 235.68
355 K, Crystal, Small sample (50 mg) DSC | 239.39
360 K, Crystal, Small sample (50 mg) DSC | 243.37
365 K, Crystal, Small sample (50 mg) DSC | 248.05
390 K, Liquid, Small sample (50 mg) DSC | 369.2
395 K, Liquid, Small sample (50 mg) DSC | 374.96
400 K, Liquid, Small sample (50 mg) DSC | 380.58
405 K, Liquid, Small sample (50 mg) DSC | 386.13
410 K, Liquid, Small sample (50 mg) DSC | 391.63
415 K, Liquid, Small sample (50 mg) DSC | 397.09
420 K, Liquid, Small sample (50 mg) DSC | 402.53

Details | Normal melting temperature [°C]
[2], Crystal, DTA | 99.23
